For 37 molecules, AC50 results are on record in PubChem BioAssay AID743417 (Broad Institute, 2014).

SMILES strings stand for the structures. Inconclusive results are not listed.

What is called AC50 is the midpoint of the concentration-response curve, whichever way the signal moves.

In the assay the test system is Clone20 osteoblast Shn3 3'UTR firefly luciferase, 24 h. The assay is described as follows: Schnurri-3 3'UTR-luciferase signal suppressors – cell-based, Clone20 osteoblasts, luminescence, dry powder, set 2, dose response (AID 743417).
Turning to `CN(Cc1ccc(OC(F)F)cc1)C(=O)c1cccc(S(=O)(=O)N2CCN(Cc3ccccc3)CC2)c1`, the AC50 is 2370 nM.

In the case of `COc1ccccc1/C=C1\CCCC2=C1Nc1nnnn1C2c1ccccc1OC` (configuration not stated), the AC50 was 36000 nM.

Take `NC(=O)CC(NC(=O)c1ccc(Br)cc1)c1ccc(N2CCC(Br)CC2)c([N+](=O)[O-])c1` (configuration not stated): the AC50 is 4190 nM.

Regarding `CC(C)NS(=O)(=O)c1ccc(CCC(=O)Nc2cc(Cl)ccc2Oc2ccccc2)cc1`, the AC50 is 7650 nM.

For the molecule `C=CS(=O)(=O)c1sc(Cl)c(N2CCOCC2)c1[N+](=O)[O-]`, the AC50 is 1310 nM.

Regarding `Cn1nccc1C(=O)NC1CCCc2c1cnn2-c1ccccc1F` (configuration not stated), the AC50 was 370 nM.

In the case of `Cc1ccc(NC(=O)CN(C)CC(=O)Nc2cccc(F)c2)cc1[N+](=O)[O-]`, the AC50 was 570 nM.

As for `COc1cccc(NC(=O)c2nc(S(C)(=O)=O)ncc2Cl)c1`, the AC50 is 834 nM.

Take `Cc1cc(NC(c2ccc(Cl)cc2)c2ccc3cccnc3c2O)no1` (configuration not stated): the AC50 is 1050 nM.

Consider `Cc1cc(F)ccc1S(=O)(=O)Nc1ccccc1C(=O)Nc1ccccc1-c1nc2ccccc2[nH]1`, for which the AC50 is 12100 nM.

Regarding `CCC(=O)c1cn(CC(=O)Nc2ccccc2Cl)c2ccccc12`, the AC50 is below 260 nM.

On to `COc1cccc(C(NC(C)=O)c2ccc3cccnc3c2O)c1` (configuration not stated), for which the AC50 was 1390 nM.

With `C=CCn1c(SCC(=O)c2[nH]c(C)c(C(=O)OC)c2C)nc2scc(-c3ccc(OC)c(OC)c3)c2c1=O`, the AC50 was 2010 nM.

In the case of `Cc1cccc(C)c1NC(=O)CN(C)C(=O)c1cccc(S(=O)(=O)N2CCN(c3ccc(F)cc3)CC2)c1`, the AC50 is 2200 nM.

`Cc1ccc2c(c1)c(C1=c3ccccc3=NC1=O)c(O)n2C`: the AC50 was 8850 nM.

For `CN(C)c1ccc(/C=C/c2ccc3ccccc3n2)cc1`, the AC50 was 1330 nM.

Take `S=C(NCCc1ccccc1)Nc1cccc2cnccc12`: the AC50 is 922 nM.

Take `COc1ccc(C(=O)NC(=S)NNC(=O)c2ccc3ccccc3n2)cc1`: the AC50 was 4320 nM.

With `O=C(Nc1ccc2nc3n(c(=O)c2c1)CCCCC3)c1c(F)ccc([N+](=O)[O-])c1F`, the AC50 was 2300 nM.

With `O=C(CN(C(=O)c1ccccc1Cl)C1CCCCC1)Nc1ccc(Cl)c([N+](=O)[O-])c1`, the AC50 was 5100 nM.

`Cc1ccc(-n2nnnc2-c2cnc(-c3cccnc3)nc2C(F)(F)F)cc1`: the AC50 is 5890 nM.

With `O=C(NCc1ccccc1)c1nc(S(=O)(=O)Cc2ccccc2)ncc1Cl`, the AC50 was 1190 nM.

As to `COc1ccc(NS(=O)(=O)c2ccc(N3CCCCC3)c(N)c2)cc1`, the AC50 is 824 nM.

As for `O=C(Nc1ccc(-c2nc3ccccc3o2)cc1)c1ccc(N2CCOCC2)c([N+](=O)[O-])c1`, the AC50 is 3350 nM.

Take `COc1cc(NC(=O)Cn2ncc(Cl)c(Cl)c2=O)c(C)cc1[N+](=O)[O-]`: the AC50 is 3440 nM.

On to `Cc1cc(C)c2nc(NNC(=O)c3ccc(S(=O)(=O)N4CC(C)CC(C)C4)cc3)sc2c1` (configuration not stated), for which the AC50 was 2280 nM.

Regarding `CCOc1ccc(-n2c(-c3ccccc3)c[n+]3c2CCC3)cc1`, the concentration at half-maximal activity (AC50) is 526 nM.

With `CCc1nnc(NC(=O)c2nc(S(=O)(=O)Cc3ccc(C)cc3)ncc2Cl)s1`, the AC50 is 3010 nM.

For the molecule `CN(C)C1=NC[C@H](Cc2ccccc2)N1CCCC1CCCCC1`, the AC50 is 1470 nM.

As for `CC(=O)NC(c1ccc(C(C)C)cc1)c1ccc2cccnc2c1O` (configuration not stated), the AC50 was 528 nM.

As to `Cc1nc2ccc(NC(=O)c3cccc(S(=O)(=O)N(C)c4ccccc4)c3)cc2s1`, the AC50 was 7600 nM.

Take `O=C(c1cc2sccc2n1Cc1ccccc1)N1CCN(c2nc3ccccc3s2)CC1`: the AC50 was 1090 nM.

Take `COCCOc1nc2c(c(=O)n(C)c(=O)n2C)n1Cc1cccc(OC)c1`: the AC50 was 2230 nM.

Take `Cc1nc2ccccc2cc1OCc1ccc(F)cc1`: the AC50 is 1700 nM.

On to `CCc1nc(N2CCN(C(C)=O)CC2)c2c3c(sc2n1)CC(C(C)(C)C)CC3` (configuration not stated), for which the AC50 was 6760 nM.

Turning to `CC(C)(C)c1nc(NCCN2CCOCC2)c2nnn(Cc3ccccc3Cl)c2n1`, the AC50 is 8850 nM.

As for `CC1C(=O)N(Cc2cn(CCC3OCCCO3)nn2)CCS(=O)(=O)N1Cc1ccc(-c2ccc(Cl)c(Cl)c2)cc1` (configuration not stated), the AC50 is 3390 nM.
